Test results from ChEMBL document CHEMBL2203224, “Diversity of polyphenol action in Caenorhabditis elegans: between toxicity and longevity” (J Nat Prod, 2011).
Active and inactive are the calls of the source. No cut-off for these calls is given here.

What was measured:
[1] = test system: Caenorhabditis elegans; test: Increase of frequency of pharyngeal pumping in Caenorhabditis elegans at 200 uM on 3rd to 9th day of adulthood; type: functional, organism-based
[2] = test system: Caenorhabditis elegans; test: Reduction of frequency of pharyngeal pumping in Caenorhabditis elegans at 200 uM on 3rd to 9th day of adulthood; type: functional, organism-based
[3] = test system: Caenorhabditis elegans; test: Reduction of body length of L4 larvae of Caenorhabditis elegans at 200 uM by microscopic analysis; type: functional, organism-based
[4] = test system: Caenorhabditis elegans; test: Reduction of initial reproduction rate in Caenorhabditis elegans assessed as first egg deposition at 200 uM after 85 hrs; type: functional, organism-based
[5] = test system: Caenorhabditis elegans; test: Increase of lifespan of L4 larvae of Caenorhabditis elegans assessed as lifespan increasing concentration after 8 hrs; type: functional
[6] = test system: Caenorhabditis elegans; test: Increase of lifespan of L4 larvae of Caenorhabditis elegans after 8 hrs in presence of H2O2; type: functional, organism-based
[7] = test system: Caenorhabditis elegans; test: Increase of lifespan of L4 larvae of Caenorhabditis elegans at 35 degC after 8 hrs; type: functional, organism-based
[8] = test system: Caenorhabditis elegans; test: Increase of lifespan of L4 larvae of Caenorhabditis elegans after 8 hrs; type: functional, organism-based
[9] = test system: Caenorhabditis elegans; test: Increase of lifespan of Caenorhabditis elegans assessed as ascorbic acid equivalent of water soluble antioxidant metabolites at 200 uM by photochemiluminescence assay; type: functional, organism-based
[10] = test system: Caenorhabditis elegans; test: Increase of lifespan of Caenorhabditis elegans assessed as trolox equivalent of lipid soluble antioxidant metabolites at 200 uM by photochemiluminescence assay; type: functional, organism-based
[11] = test system: Caenorhabditis elegans; test: Toxicity in L4 larvae of Caenorhabditis elegans at 800 uM after 8 hrs; type: organism-based; conditions: in vivo
[12] = test system: Caenorhabditis elegans; test: […] assessed as ascorbic acid equivalent of water soluble antioxidant metabolites at 50 uM by photochemiluminescence assay; type: functional, organism-based
[13] = test system: Caenorhabditis elegans; test: Reduction of frequency of pharyngeal pumping in Caenorhabditis elegans at 50 uM on 3rd to 9th day of adulthood; type: functional, organism-based
[14] = test system: Caenorhabditis elegans; test: Reduction of initial reproduction rate in Caenorhabditis elegans assessed as first egg deposition at 50 uM after 85 hrs; type: functional, organism-based
[15] = test system: Caenorhabditis elegans; test: Reduction of body length of L4 larvae of Caenorhabditis elegans at 50 uM by microscopic analysis; type: functional, organism-based
[16] = test system: Caenorhabditis elegans; test: Increase of lifespan of L4 larvae of Caenorhabditis elegans at 50 uM in presence of heat killed bacteria; type: functional, organism-based
[17] = test system: Caenorhabditis elegans; test: […] assessed as ascorbic acid equivalent of water soluble antioxidant metabolites at 300 uM by photochemiluminescence assay; type: functional, organism-based
[18] = test system: Caenorhabditis elegans; test: […] assessed as trolox equivalent of lipid soluble antioxidant metabolites at 300 uM by photochemiluminescence assay; type: functional, organism-based
[19] = test system: Caenorhabditis elegans; test: Increase of median lifespan of L4 larvae of Caenorhabditis elegans harboring eat-2 (ad465) at 300 uM after 8 hrs; type: functional
[20] = test system: Caenorhabditis elegans; test: Increase of mean lifespan of L4 larvae of Caenorhabditis elegans harboring eat-2 (ad465) at 300 uM after 8 hrs; type: functional
[21] = test system: Caenorhabditis elegans; test: Increase of frequency of pharyngeal pumping in Caenorhabditis elegans at 300 uM on 9th day of adulthood; type: functional, organism-based
[22] = test system: Caenorhabditis elegans; test: Reduction of frequency of pharyngeal pumping in Caenorhabditis elegans at 300 uM on 3rd to 9th day of adulthood; type: functional, organism-based
[23] = test system: Caenorhabditis elegans; test: Reduction of initial reproduction rate in Caenorhabditis elegans assessed as first egg deposition at 300 uM after 85 hrs; type: functional, organism-based
[24] = test system: Caenorhabditis elegans; test: Increase of body length of L4 larvae of Caenorhabditis elegans at 300 uM by microscopic analysis; type: functional, organism-based
[25] = test system: Caenorhabditis elegans; test: Increase of lifespan of L4 larvae of Caenorhabditis elegans at 300 uM in presence of heat killed bacteria; type: functional, organism-based
[26] = test system: Caenorhabditis elegans; test: Increase of lifespan of L4 larvae of Caenorhabditis elegans at 300 uM after 8 hrs in presence of H2O2; type: functional, organism-based
[27] = test system: Caenorhabditis elegans; test: Increase of lifespan of L4 larvae of Caenorhabditis elegans at 300 uM at 35 degC after 8 hrs; type: functional, organism-based
[28] = test system: Caenorhabditis elegans; test: […] assessed as ascorbic acid equivalent of water soluble antioxidant metabolites at 100 uM by photochemiluminescence assay; type: functional, organism-based
[29] = test system: Caenorhabditis elegans; test: […] assessed as trolox equivalent of lipid soluble antioxidant metabolites at 100 uM by photochemiluminescence assay; type: functional, organism-based
[30] = test system: Caenorhabditis elegans; test: Reduction of triglyceride level in Caenorhabditis elegans at 100 uM; type: functional, organism-based
[31] = test system: Caenorhabditis elegans; test: Reduction of frequency of pharyngeal pumping in Caenorhabditis elegans at 100 uM on 3rd to 9th day of adulthood; type: functional, organism-based
[32] = test system: Caenorhabditis elegans; test: Reduction of initial reproduction rate in Caenorhabditis elegans assessed as first egg deposition at 100 uM after 85 hrs; type: functional, organism-based
[33] = test system: Caenorhabditis elegans; test: Reduction of body length of L4 larvae of Caenorhabditis elegans at 100 uM by microscopic analysis; type: functional, organism-based
[34] = test system: Caenorhabditis elegans; test: Increase of mean lifespan of L4 larvae of wild type Caenorhabditis elegans at 100 uM after 8 hrs; type: functional
[35] = test system: Caenorhabditis elegans; test: Increase of mean lifespan of L4 larvae of Caenorhabditis elegans harboring mev-1 (kn1) mutant at 100 uM after 8 hrs; type: functional

Q: How did the Activity [1] turn out when `Oc1cc(O)c2c(c1)OC(c1ccc(O)c(O)c1)C(O)C2` (stereo not drawn) [CATECHIN] was run?
A: Active

Q: And the Activity [2]?
A: inactive

Q: What about the Activity [3] of the same compound?
A: Active

Q: And the Activity [4]?
A: inactive

Q: What about the Activity [5] of the same compound?
A: 200 µM

Q: What about the Activity [6] of the same compound?
A: Active

Q: And the Activity [7]?
A: Active

Q: What about the Activity [8] of the same compound?
A: Active

Q: What about the Activity [9] of the same compound?
A: inactive

Q: What about the Activity [10] of the same compound?
A: inactive

Q: `Oc1cc(O)c2c(c1)O[C@H](c1ccc(O)c(O)c1)[C@@H](O)C2` [CATECHIN] was tested. Which Activity [11] did it give?
A: Non-toxic

Q: `O=c1oc2c(O)c(O)cc3c(=O)oc4c(O)c(O)cc1c4c23` [ELLAGIC ACID] was tested. Which Activity [12] did it give?
A: Active

Q: What about the Activity [13] of the same compound?
A: inactive

Q: What about the Activity [14] of the same compound?
A: Active

Q: What about the Activity [15] of the same compound?
A: Active

Q: What about the Activity [16] of the same compound?
A: Active

Q: And the Activity [5]?
A: 50 µM

Q: And the Activity [6]?
A: inactive

Q: What about the Activity [11] of the same compound?
A: Toxic

Q: `O=C(O)c1cc(O)c(O)c(O)c1` [GALLIC ACID] was tested. Which Activity [17] did it give?
A: inactive

Q: And the Activity [18]?
A: inactive

Q: What about the Activity [19] of the same compound?
A: 11%

Q: And the Activity [20]?
A: 7%

Q: What about the Activity [21] of the same compound?
A: Active

Q: What about the Activity [22] of the same compound?
A: inactive

Q: What about the Activity [23] of the same compound?
A: Active

Q: What about the Activity [24] of the same compound?
A: Active

Q: What about the Activity [25] of the same compound?
A: Active

Q: What about the Activity [5] of the same compound?
A: 300 µM

Q: What about the Activity [26] of the same compound?
A: inactive

Q: And the Activity [27]?
A: inactive

Q: And the Activity [6]?
A: Active

Q: And the Activity [11]?
A: Non-toxic

Q: What about the Activity [7] of the same compound?
A: Active

Q: And the Activity [8]?
A: Active

Q: With `O=C(OC[C@H]1O[C@@H](OC(=O)c2cc(O)c(O)c(OC(=O)c3cc(O)c(O)c(O)c3)c2)[C@H](OC(=O)c2cc(O)c(O)c(OC(=O)c3cc(O)c(O)c(O)c3)c2)[C@@H](OC(=O)c2cc(O)c(O)c(OC(=O)c3cc(O)c(O)c(O)c3)c2)[C@@H]1OC(=O)c1cc(O)c(O)c(OC(=O)c2cc(O)c(O)c(O)c2)c1)c1cc(O)c(O)c(OC(=O)c2cc(O)c(O)c(O)c2)c1` [TANNIC ACID] as the compound, how does the Activity [28] read?
A: Active

Q: What about the Activity [29] of the same compound?
A: Active

Q: And the Activity [30]?
A: Active

Q: What about the Activity [31] of the same compound?
A: inactive

Q: What about the Activity [32] of the same compound?
A: Active

Q: And the Activity [33]?
A: Active

Q: What about the Activity [5] of the same compound?
A: 100 µM

Q: What about the Activity [6] of the same compound?
A: inactive

Q: And the Activity [11]?
A: Toxic

Q: What about the Activity [7] of the same compound?
A: Active

Q: And the Activity [8]?
A: Active

Q: What about the Activity [34] of the same compound?
A: 17.6%

Q: What about the Activity [35] of the same compound?
A: 3.2%
